Reference: ChEMBL document CHEMBL5050844 (2019)

Legend:
Assay type in all cases: functional, T cell line
[1] = Induction of anti-CD3/CD28 antibodies-stimulated human T cell activation at 4 uM assessed fold increase in IL-2 secretion measured by ELISA assay
[2] = Induction of anti-CD3/CD28 antibodies-stimulated human T cell activation at 1 uM assessed fold increase in IL-2 secretion measured by ELISA assay
[3] = Induction of anti-CD3/CD28 antibodies-stimulated human T cell activation at 0.3 uM assessed fold increase in IL-2 secretion measured by ELISA assay
[4] = Induction of anti-CD3 antibodies-stimulated human T cell activation at 8 uM assessed fold increase in IL-2 secretion measured by ELISA assay
[5] = Induction of anti-CD3 antibodies-stimulated human T cell activation at 1 uM assessed fold increase in IL-2 secretion measured by ELISA assay
[6] = Induction of anti-CD3/CD28 antibodies-stimulated human T cell activation at 4 uM assessed fold increase in CD25 expression measured by ELISA assay
[7] = Induction of anti-CD3/CD28 antibodies-stimulated human T cell activation at 1 uM assessed fold increase in CD25 expression measured by ELISA assay
[8] = Induction of anti-CD3/CD28 antibodies-stimulated human T cell activation at 0.3 uM assessed fold increase in CD25 expression measured by ELISA assay
[9] = Induction of anti-CD3 antibodies-stimulated human T cell activation at 8 uM assessed fold increase in CD25 expression measured by ELISA assay
[10] = Induction of anti-CD3 antibodies-stimulated human T cell activation at 1 uM assessed fold increase in CD25 expression measured by ELISA assay

Compound	fold change (FC) [1]	fold change (FC) [2]	fold change (FC) [3]	fold change (FC) [4]	fold change (FC) [5]	fold change (FC) [6]	fold change (FC) [7]	fold change (FC) [8]	fold change (FC) [9]	fold change (FC) [10]
C[C@H](Cc1nocc1C(F)(F)F)c1cccc(N2Cc3c(cc(C(=O)N4CC[C@H](O)C4)cc3C(F)(F)F)C2=O)c1	2.51	1.01	1.01	>=0.201	0.051	1.31	1.01	1.01	>=1.001	0.601
C[C@H](Cc1nncn1C)c1cc(NCCO)nc(N2Cc3c(cccc3C(F)(F)F)C2=O)c1	2.51	1.01	1.01	0.151	0.051	1.01	1.01	1.01	>=1.001	0.601
Cc1cc(C)nc(C(=O)Nc2cccc([C@H](C)Sc3nncn3C)c2)c1	>=7.5	5	2.51	<=0.05	<=0.05	1.01	1.01	1.01	0.801	<=0.6
Cc1ccc(C(=O)Nc2cc([C@H](C)Sc3nncn3C)ccn2)nc1C1CC1	5	2.51	2.51	<=0.05	<=0.05	1.01	<=1	<=1	<=0.6	<=0.6
C[C@H](Sc1nncn1C)c1cccc(NC(=O)c2cc3cc(OCC(=O)NCCN)ccc3cn2)c1.Cl	1.01	<=1	<=1	<=0.05	<=0.05	1.01	<=1	<=1	0.601	0.601
C[C@H](Cc1nncn1C)c1cccc(NC(=O)c2cc(C(=O)N3C[C@@H](O)C[C@H]3C)ccn2)c1	<=1	<=1	<=1	0.101	0.101	1.51	1.01	1.01	<=0.6	<=0.6
Cc1ccc(C(=O)Nc2cccc([C@H](C)Cc3nnc[nH]3)c2)nc1C1CC1	1.01	1.01	1.01	<=0.05	<=0.05	>=1.76	1.51	1.51	<=0.6	<=0.6
C[C@H](Sc1nncn1C)c1cccc(NC(=O)c2cc(C(=O)N3CC(O)C3)ccn2)c1	<=1	<=1	<=1	<=0.05	<=0.05	<=1	<=1	<=1	0.601	<=0.6
C[C@H](Sc1nncn1C)c1cccc(NC(=O)c2cc3cc(OCc4ccn[nH]4)ccc3cn2)c1	2.51	1.01	1.01	0.101	0.051	1.01	<=1	<=1	<=0.6	<=0.6
